{"source": "paper PMC7971076", "about": "(Bioorganic & medicinal chemistry letters, 2015)", "key": {"[1]": {"test_system": "cultured primary hippocampal neurons", "assay": "Neuroprotection against NMDA-induced excitotoxicity, LDH release", "type": "cell-based", "conditions": "100 µM NMDA plus 30 µM glycine 1 h; LDH 20–24 h after; 30 µM 4, 10 µM (+)MK-801"}, "[2]": {"biological_target": "GluN1/GluN2C NMDA receptor (Rattus norvegicus, UniProt P35439+Q00961)", "sequence (Q00961 20-1237, other chains not shown)": "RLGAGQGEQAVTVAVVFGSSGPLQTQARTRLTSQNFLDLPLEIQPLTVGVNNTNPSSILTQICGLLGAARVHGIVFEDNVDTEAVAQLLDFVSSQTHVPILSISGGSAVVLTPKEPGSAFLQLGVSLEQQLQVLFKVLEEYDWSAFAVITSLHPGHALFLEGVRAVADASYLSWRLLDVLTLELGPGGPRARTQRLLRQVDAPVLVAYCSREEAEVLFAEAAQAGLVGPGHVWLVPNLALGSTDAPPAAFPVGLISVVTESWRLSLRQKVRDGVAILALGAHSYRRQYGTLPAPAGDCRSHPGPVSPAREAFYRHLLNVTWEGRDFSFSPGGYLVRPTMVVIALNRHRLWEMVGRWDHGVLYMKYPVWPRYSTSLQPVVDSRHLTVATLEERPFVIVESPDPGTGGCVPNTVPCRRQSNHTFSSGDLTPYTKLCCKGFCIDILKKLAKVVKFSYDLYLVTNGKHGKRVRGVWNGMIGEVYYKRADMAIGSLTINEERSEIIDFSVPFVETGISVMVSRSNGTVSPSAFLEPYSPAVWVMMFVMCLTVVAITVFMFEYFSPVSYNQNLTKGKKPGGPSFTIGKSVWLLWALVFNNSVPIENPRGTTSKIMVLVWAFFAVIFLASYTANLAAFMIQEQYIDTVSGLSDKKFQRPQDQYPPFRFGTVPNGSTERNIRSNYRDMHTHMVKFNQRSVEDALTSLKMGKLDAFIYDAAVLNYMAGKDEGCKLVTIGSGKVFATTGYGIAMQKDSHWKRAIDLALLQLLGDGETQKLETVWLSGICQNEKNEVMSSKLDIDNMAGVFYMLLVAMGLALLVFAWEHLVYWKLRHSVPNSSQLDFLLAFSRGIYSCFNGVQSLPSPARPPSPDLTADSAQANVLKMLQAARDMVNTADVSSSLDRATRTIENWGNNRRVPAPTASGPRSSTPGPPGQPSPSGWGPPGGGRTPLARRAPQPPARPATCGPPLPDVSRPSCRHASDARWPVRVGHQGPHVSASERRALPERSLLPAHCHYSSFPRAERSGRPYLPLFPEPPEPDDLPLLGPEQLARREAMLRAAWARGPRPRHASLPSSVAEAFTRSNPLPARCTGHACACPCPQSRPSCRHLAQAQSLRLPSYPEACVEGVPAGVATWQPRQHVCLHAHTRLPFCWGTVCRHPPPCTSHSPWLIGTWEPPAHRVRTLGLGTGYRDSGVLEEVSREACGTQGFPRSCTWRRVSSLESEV", "type": "cell-based", "conditions": "3 µM compound, absence of Mg2+, n = 5"}, "[3]": {"test_system": "diheteromeric NMDA receptors (GluN1 with GluN2A–D)", "assay": "Two electrode voltage clamp, statements across the diheteromeric NMDA receptors", "type": "cell-based, rat", "conditions": "for decrease in potency: relative to parent analogues (1/14)"}, "[4]": {"biological_target": "GluN1/GluN2D NMDA receptor (Rattus norvegicus, UniProt P35439+Q62645)", "sequence (Q62645 28-1323, other chains not shown)": "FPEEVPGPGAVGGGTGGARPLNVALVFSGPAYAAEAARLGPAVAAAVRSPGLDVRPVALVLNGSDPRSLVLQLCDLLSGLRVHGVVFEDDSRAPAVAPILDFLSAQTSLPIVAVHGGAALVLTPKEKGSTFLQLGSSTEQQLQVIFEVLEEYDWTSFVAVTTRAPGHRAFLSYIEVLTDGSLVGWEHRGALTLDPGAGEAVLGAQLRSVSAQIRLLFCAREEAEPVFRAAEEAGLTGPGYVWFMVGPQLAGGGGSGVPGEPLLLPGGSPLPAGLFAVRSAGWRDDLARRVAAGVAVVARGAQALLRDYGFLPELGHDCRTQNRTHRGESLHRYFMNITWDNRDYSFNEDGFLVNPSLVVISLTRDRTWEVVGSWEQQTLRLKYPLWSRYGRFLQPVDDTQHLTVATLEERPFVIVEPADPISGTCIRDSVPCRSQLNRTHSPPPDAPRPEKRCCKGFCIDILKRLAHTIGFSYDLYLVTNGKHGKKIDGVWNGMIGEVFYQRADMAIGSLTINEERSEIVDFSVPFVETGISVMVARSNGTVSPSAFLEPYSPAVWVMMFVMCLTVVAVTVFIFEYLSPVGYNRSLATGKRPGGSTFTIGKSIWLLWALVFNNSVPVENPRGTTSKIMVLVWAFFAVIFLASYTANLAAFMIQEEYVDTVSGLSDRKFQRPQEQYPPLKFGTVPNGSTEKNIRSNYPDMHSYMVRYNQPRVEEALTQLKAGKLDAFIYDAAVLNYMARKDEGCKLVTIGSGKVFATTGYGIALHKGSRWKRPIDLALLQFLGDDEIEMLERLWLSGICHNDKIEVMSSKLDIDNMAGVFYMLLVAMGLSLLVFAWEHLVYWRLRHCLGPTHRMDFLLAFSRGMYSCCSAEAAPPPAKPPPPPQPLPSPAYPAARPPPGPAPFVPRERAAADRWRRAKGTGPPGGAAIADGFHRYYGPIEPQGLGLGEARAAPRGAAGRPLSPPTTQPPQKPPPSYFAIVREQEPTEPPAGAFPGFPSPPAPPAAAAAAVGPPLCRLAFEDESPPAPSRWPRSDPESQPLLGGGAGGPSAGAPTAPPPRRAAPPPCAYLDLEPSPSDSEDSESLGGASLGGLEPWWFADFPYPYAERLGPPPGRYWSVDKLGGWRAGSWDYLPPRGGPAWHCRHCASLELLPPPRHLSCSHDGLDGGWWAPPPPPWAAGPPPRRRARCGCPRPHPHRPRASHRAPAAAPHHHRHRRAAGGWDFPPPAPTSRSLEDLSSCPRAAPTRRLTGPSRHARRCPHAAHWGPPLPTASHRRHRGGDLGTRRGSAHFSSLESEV", "type": "cell-based", "conditions": "compared to screening hit 1"}, "[5]": {"assay": "Stability of enantiomers separated by chiral semi-preparative HPLC", "type": "physicochemical", "conditions": "after chiral semi-preparative HPLC"}}, "data": [{"smiles": "C[C@]12N[C@H](Cc3ccccc31)c1ccccc12", "note": "[(+)MK-801, reference compound]", "values": [{"measurement": "NMDA/glycine-induced cell death (supernatant LDH)", "setting": "[1]", "value": "able to attenuate"}]}, {"smiles": "CCOC(=O)c1c(NC(=O)CC2SC(N)=NC2=O)sc2c1CCC(C)C2", "note": "(centres unmarked) [Compound 4]", "values": [{"measurement": "degree of inhibition at membrane potentials between ‒60 and +60 mV", "setting": "[2]", "value": "the same at all voltages tested"}, {"measurement": "improved activity compared to unsubstituted counterpart 5", "setting": "[3]", "value": "~ 2 fold"}, {"measurement": "mechanism: inhibition with 10-fold increase in glutamate (1000 µM) or glycine (300 µM)", "setting": "[3]; 5 µM compound", "value": "could not be surmounted"}, {"measurement": "inhibition at saturating concentrations against all GluN2 subunits", "setting": "[3]; separate experiments, n = 4–6", "value": "73–81%"}, {"measurement": "NMDA/glycine-induced cell death (supernatant LDH)", "setting": "[1]", "value": "reduced significantly"}]}, {"smiles": "CCOC(=O)c1c(NC(=O)CC2SC(=N)NC2=O)sc2c1CCCC2", "note": "(centres unmarked) [Compound 5]", "values": [{"measurement": "increase in potency at GluN2D-containing receptors", "setting": "[4]", "value": 3, "unit": "fold"}]}, {"smiles": "CCOC(=O)c1c(NC(=O)CC2SC(=N)NC2=O)sc2c1CCC(F)(F)C2", "note": "(centres unmarked) [Compound 11]", "values": [{"measurement": "racemization of separated enantiomers", "setting": "[5]", "value": "prone to rapid racemization"}]}, {"smiles": "N=C1NC(=O)C(CC(=O)Nc2sc3c(c2C(=O)O)CCCC3)S1", "note": "(centres unmarked) [Compound 13]", "values": [{"measurement": "activity at NMDA receptor subtypes", "setting": "[3]", "value": "loss of activity"}]}, {"smiles": "CCOC(=O)c1cc(C)sc1NC(=O)CC1SC(=N)NC1=O", "note": "(centres unmarked) [Compound 15]", "values": [{"measurement": "decrease in potency", "setting": "[3]", "value": "> 4", "unit": "fold"}]}, {"smiles": "COC(=O)c1ccsc1NC(=O)CC1SC(=N)NC1=O", "note": "(centres unmarked) [Compound 19]", "values": [{"measurement": "decrease in potency", "setting": "[3]", "value": "over 10 fold"}]}, {"smiles": "COC(=O)c1c(NC(=O)CC2SC(N)=NC2=O)sc2c1CCCC2", "note": "(centres unmarked) [Compound 20]", "values": [{"measurement": "increase in potency at GluN2D-containing receptors", "setting": "[4]", "value": 2, "unit": "fold"}]}, {"smiles": "N#Cc1c(NC(=O)CC2SC(=N)NC2=O)sc2c1CCCC2", "note": "(centres unmarked) [Compound 21]", "values": [{"measurement": "maximal inhibition", "setting": "[3]", "value": 60, "unit": "%"}]}, {"smiles": "COC(=O)c1c(NC(=O)CC2SC(N)=NC2=O)sc2c1CCC(C)C2", "note": "(centres unmarked) [Compound 22]", "values": [{"measurement": "IC50 values for all NMDA receptor subunits", "setting": "[3]", "value": "submicromolar"}]}, {"smiles": "CCOC(=O)c1c(NC(=O)CC2SC(=O)NC2=O)sc2c1CCC2", "note": "(centres unmarked) [Compound 24]", "values": [{"measurement": "activity at NMDA receptor subtypes", "setting": "[3]", "value": "abolished activity"}]}, {"smiles": "CCOC(=O)c1c(NC(=O)CC2SC(=O)NC2=O)sc2c1CCCC2", "note": "(centres unmarked) [Compound 25]", "values": [{"measurement": "activity at NMDA receptor subtypes", "setting": "[3]", "value": "abolished activity"}]}, {"smiles": "CCOC(=O)c1c(NC(=O)CC2NC(=O)NC2=O)sc2c1CCCC2", "note": "(centres unmarked) [Compound 27]", "values": [{"measurement": "activity at NMDA receptor subtypes", "setting": "[3]", "value": "abrogated activity"}]}]}
